Results published in BigSolDB 2.1.

COc1c(O)cc2c(c1O)[C@@H]1O[C@H](CO)[C@@H](O)[C@H](O)[C@H]1OC2=O
solubility (mole fraction)
Details	in DMSO	in ethanol	in ethyl acetate	in ethylene glycol	in isopropanol	in n-butanol	in propylene glycol	in sec-butanol	in transcutol	in water
298.15 K	0.0171	0.00469	0.000228	0.00774	0.00129	0.000379	0.00777	0.000384	0.0145	7.57e-05
303.15 K	0.0184	0.00537	0.000311	0.00859	0.00139	0.000404	0.00873	0.00041	0.0166	9.93e-05
308.15 K	0.02	0.00612	0.000405	0.00944	0.00149	0.000431	0.00966	0.00044	0.0186	0.000125
313.15 K	0.0214	0.00687	0.000526	0.0105	0.00159	0.000458	0.0108	0.000473	0.0207	0.000155
318.15 K	0.023	0.00777	0.000671	0.0117	0.00169	0.000492	0.0119	0.000514	0.0228	0.000187

Details	solubility (mole fraction)
in PEG-400, 298.15 K	0.0236
in PEG-400, 303.15 K	0.0277
in PEG-400, 308.15 K	0.032
in PEG-400, 313.15 K	0.0367
in PEG-400, 318.15 K	0.0415
